Measured values published in ChEMBL document CHEMBL1201862, “PubChem BioAssay data set” (2004).
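Interpolation was linear, between the two tested concentrations surrounding the appropriate level; five concentrations were tested over 48 hours in 96-well plates. At the GI50, growth is halved.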 Activity calls are given as the source filed them. No stated cut-off is given here; in the data, active = GI50 up to about 1.1 µM and inactive = higher.

Tests used:
Test in all cases: NCI tumour cell line growth inhibition, 48 h
SN12C = tested on: SN12C
K562 = tested on: K562
HOP-62 = tested on: HOP-62
OVCAR-8 = tested on: OVCAR-8
A498 = tested on: A498
RPMI-8226 = tested on: RPMI-8226
SR = tested on: SR
LOX IMVI = tested on: LOX IMVI
NCI/ADR-RES = tested on: NCI/ADR-RES
NCI-H460 = tested on: NCI-H460
RXF 393 = tested on: RXF 393
PC-3 = tested on: PC-3
HL-60 = tested on: HL-60
M14 = tested on: M14
SNB-75 = tested on: SNB-75
HOP-92 = tested on: HOP-92
NCI-H522 = tested on: NCI-H522
SF-268 = tested on: SF-268
UO-31 = tested on: UO-31

Measured: GI50

c1ccc(C2=NC3OC2c2ccccc23)cc1 (centres undefined)
inactive: SN12C > 10 µM | K562 > 10 µM | HOP-62 > 10 µM | OVCAR-8 > 10 µM | A498 > 10 µM | RPMI-8226 > 10 µM | SR > 10 µM | LOX IMVI > 10 µM | NCI/ADR-RES > 10 µM | NCI-H460 > 10 µM | RXF 393 > 10 µM | PC-3 > 10 µM | HL-60 > 10 µM | M14 > 10 µM | SNB-75 > 10 µM | HOP-92 > 10 µM | NCI-H522 > 10 µM | SF-268 > 10 µM

Nc1ccc(C(=O)N2CCC[C@H]2CO)c(N)c1
inactive: SN12C > 100 µM | K562 > 100 µM | HOP-62 > 100 µM | UO-31 > 100 µM | OVCAR-8 > 100 µM | A498 > 100 µM | RPMI-8226 > 100 µM | SR > 100 µM | LOX IMVI > 100 µM | NCI/ADR-RES > 100 µM | NCI-H460 > 100 µM | RXF 393 > 100 µM | PC-3 > 100 µM | HL-60 > 100 µM | M14 > 100 µM | SNB-75 > 100 µM | HOP-92 > 100 µM | NCI-H522 > 100 µM | SF-268 > 100 µM

O=S(=O)(O)n1ccnc1
inactive: SN12C > 100 µM | K562 > 100 µM | HOP-62 > 100 µM | UO-31 > 100 µM | OVCAR-8 > 100 µM | A498 > 100 µM | RPMI-8226 > 100 µM | SR > 100 µM | LOX IMVI > 100 µM | NCI/ADR-RES > 100 µM | NCI-H460 > 100 µM | RXF 393 > 100 µM | PC-3 > 100 µM | HL-60 > 100 µM | M14 > 100 µM | SNB-75 > 100 µM | HOP-92 > 100 µM | NCI-H522 > 100 µM | SF-268 > 100 µM

O=C(/C=C/c1ccc(OCc2ccccc2)cc1)NCc1ccc(C(=O)NCCc2c[nH]c3ccccc23)cc1
inactive: SN12C 23.8 µM | K562 44.4 µM | HOP-62 3.66 µM | UO-31 35 µM | OVCAR-8 6.76 µM | A498 38.9 µM | RPMI-8226 > 100 µM | SR 20.9 µM | LOX IMVI 44.3 µM | NCI/ADR-RES > 100 µM | NCI-H460 15.4 µM | RXF 393 7.06 µM | PC-3 12 µM | HL-60 6.22 µM | M14 27.8 µM | SNB-75 8.3 µM | HOP-92 21 µM | SF-268 11.1 µM

Cc1c2ccncc2c(C)c2c1sc1ccccc12
inactive: SN12C 9.38 µM | K562 6.5 µM | HOP-62 7.38 µM | OVCAR-8 8.22 µM | A498 8.47 µM | RPMI-8226 6.87 µM | SR 2.19 µM | LOX IMVI 6.18 µM | NCI/ADR-RES 7.08 µM | NCI-H460 2.31 µM | RXF 393 10 µM | PC-3 11.1 µM | HL-60 2.9 µM | M14 11.6 µM | SNB-75 14.6 µM | HOP-92 12 µM | NCI-H522 5.41 µM | SF-268 11.3 µM

CC1=NN(c2nc(N)nc(-c3ccccc3S(N)(=O)=O)n2)C(C)(C)C1
inactive: K562 35.2 µM | HOP-62 13 µM | UO-31 3.92 µM | OVCAR-8 16 µM | A498 22.4 µM | RPMI-8226 27.2 µM | SR 5.85 µM | LOX IMVI 10.3 µM | NCI/ADR-RES 9.33 µM | NCI-H460 5.07 µM | RXF 393 14 µM | PC-3 16.7 µM | HL-60 6.03 µM | M14 6.7 µM | HOP-92 > 100 µM | NCI-H522 24.3 µM | SF-268 8.24 µM

CCCCCCCC/C=C(\Br)C(O)C(Br)Br (centres undefined)
inactive: SN12C 17.3 µM | K562 69.7 µM | HOP-62 19.6 µM | UO-31 19.4 µM | OVCAR-8 23.4 µM | A498 31 µM | RPMI-8226 42.7 µM | SR 40.8 µM | LOX IMVI 19.9 µM | NCI/ADR-RES 26.2 µM | NCI-H460 30.4 µM | RXF 393 19.3 µM | PC-3 38.1 µM | M14 22.7 µM | SNB-75 36 µM | HOP-92 20.9 µM | NCI-H522 19.1 µM | SF-268 23.2 µM

CCOC(=O)c1nc2ccc(C(F)(F)F)cc2nc1NCc1cc(OC)c(OC)c(OC)c1
inactive: SN12C > 100 µM | HOP-62 > 100 µM | UO-31 35.3 µM | OVCAR-8 > 100 µM | A498 > 100 µM | RPMI-8226 17.7 µM | SR 7.38 µM | LOX IMVI 35.7 µM | NCI/ADR-RES 94.8 µM | RXF 393 39.9 µM | PC-3 41.9 µM | HL-60 33 µM | M14 > 100 µM | SNB-75 29.1 µM | HOP-92 27.7 µM | NCI-H522 37.1 µM | SF-268 61.8 µM
